Results published in patent EP0446604A2, “Pyridine and related aza heterocycle derivatives as cardiovascular agents” (AMERICAN CYANAMID COMPANY, priority 1990, dated 1991).

Key:
[1] = target: T1, thromboxane synthetase enzyme (Rattus norvegicus, UniProt P49430); experiment: Inhibition of thromboxane (TXB2) formation in washed rat platelets, TXB2 radioimmunoassay; type: biochemical, Okamoto-Aoki spontaneously hypertensive rats (SHR); conditions: Concentration 1x10^-4M, platelet suspension incubated 10 minutes at 37 °C
T1 construct: from tissue; host or cells: washed blood platelets from Okamoto-Aoki spontaneously hypertensive rats (SHR)
T1 sequence (P49430 1-533): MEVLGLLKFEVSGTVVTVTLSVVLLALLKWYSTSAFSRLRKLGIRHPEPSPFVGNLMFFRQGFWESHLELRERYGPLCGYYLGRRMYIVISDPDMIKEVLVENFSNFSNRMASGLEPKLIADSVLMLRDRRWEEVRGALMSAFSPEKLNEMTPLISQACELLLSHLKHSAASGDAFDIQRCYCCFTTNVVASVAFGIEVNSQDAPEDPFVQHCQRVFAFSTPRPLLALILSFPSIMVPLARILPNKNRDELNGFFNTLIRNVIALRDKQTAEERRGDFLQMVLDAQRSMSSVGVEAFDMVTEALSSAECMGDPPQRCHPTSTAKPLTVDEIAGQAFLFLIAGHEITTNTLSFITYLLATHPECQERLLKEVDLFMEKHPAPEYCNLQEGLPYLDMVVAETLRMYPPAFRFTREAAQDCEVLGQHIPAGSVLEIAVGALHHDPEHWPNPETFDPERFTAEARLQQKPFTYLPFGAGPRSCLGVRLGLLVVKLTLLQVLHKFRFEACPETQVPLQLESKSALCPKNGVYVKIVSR
Procedure: Under urethan anesthesia, […] of arterial blood from Okamoto-Aoki spontaneously hypertensive rats (SHR) (Taconic Farms, Germantown, NY) between 19 and 24 weeks in age is collected in one ml of 3.2% sodium citrate in a polystyrene tube. The blood is diluted with 3 ml of cold saline and centrifuged at room temperature for 15 minutes at 460xg. The platelet rich plasma (PRP) is separated. The platelets are isolated by centrifuging the PRP for 10 minutes at 1060xg and are washed in 4 ml of cold oxygenated Krebs phosphate buffer, pH 7.4. The chilled platelets, recovered from centrifuging at 800xg for 10 minutes, are resuspended in oxygenated Krebs phosphate buffer and diluted to contain 4.5-6.0 x 10⁴ platelets/µ1. The inhibition of thromboxane (TX) formation is studied by determining the concentration of thromboxane B₂ (TXB₂), the stable hydrolysis product of TXA₂. Assay samples, prepared on ice, contain 200 µ1 platelet suspension, 50 µ1 saline, and 50 µ1 vehicle (saline) or drug under study. The samples are incubated for 10 minutes at 37 °C in a metabolic shaker. The reaction is terminated by immersing the tubes in an ice bath and adding 50 µl of 0.5M citric acid. The samples are centrifuged for 10 minutes in a refrigerated centrifuge and the supernatants thus obtained are decanted and stored at -20 °C. The TXB₂ content for each sample is determined by a direct radioimmunoassay (RIA) utilizing a TXB₂ specific RIA kit purchased from New England Nuclear, Boston, MA and expressed as pg TXB₂ formed per minute per sample, from which the percent inhibition of TXB₂ formation is calculated.

[2] = system: spontaneously hypertensive rats of the Okamoto strain; experiment: Hypotensive activity in spontaneously hypertensive rats (method of Chan and Poorvin); type: in vivo; conditions: by gavage, 100 mg/kg or less, second identical dose 24 hours later; MABP measured 28 hours after initial dose; average MABP of the rats used 160±1.5 mm of mercury
Procedure: The novel compounds of the present invention are active hypotensive agents and were tested for hypotensive activity by the method of P.S. Chan and D. Poorvin, Clinical and Experimental Hypertension, 1 (6), 817-830 (1979). Male, 16 week old, spontaneously hypertensive rats of the Okamoto strain, from Taconic Farms, Germantown, New York, having an average mean arterial blood pressure of 160±1.5 mm of mercury, were used in the test. One to four rats were used per test compound. A rat is dosed by gavage with a test compound suspended in 2% pre-boiled starch at a concentration of 50 mg/ml, at a dose of 100 mg/kg of body weight or less, with 0.9% sodium chloride loading at a dose of 25 ml/kg of body weight. A second identical dose of the test compound, without sodium chloride loading is given 24 hours later. At 28 hours after the initial dose the mean arterial blood pressure (MABP) is measured. The procedure is repeated in a second and third rat when necessary. The results of this test on representative compounds of the present invention appear below in Table II.

[3] = system: Male mice of the Swiss Webster Strain; experiment: Calcium chloride-induced arrhythmia in anesthetized mice (survival); type: in vivo; conditions: Mus musculus, iv, Dose = 10 mg/kg i.v.; calcium chloride 200 mg/kg i.v. bolus 5, 15 or 30 minutes after drug; observed 15 minutes; read-out: CaCl2 #Mice Surviving #Mice Tested (converted)
Source text: (§1) Intravenous administration of high doses of calcium or potassium chloride in animals produces cardiac arrhythmias, cardiac fibrillation and cardiac arrest. Any agent that can prevent these events is considered an antiarrhythmic/antifibrillatory agent. (Meth. and Find Exptl. Clin Pharmacol.2:223-252(1980); Pharmacol, Ther. 24:401-433 (1984); Experimental Cardiac and Antiarrhythmic Drugs, L. Szekeres and Gy. J. Dapp, Akademiai Kiado Preso, Budapest, 9-448 (1971).)
(§2) The method employed is as follows: Male mice of the Swiss Webster Strain (Charles River, Wilmington, MA) weighing 25-35 g are anesthetized with ethyl carbamate (urethan) (1.5g/kg body weight i.p.). A 25-gauge needle attached to PE-20 tubing is inserted into a caudal vein for drug administration. The lead II ECG is recorded by needle electrodes placed subcutaneously in the limbs. All data is collected on a Gould Brush recorder. Animals are observed 5 minutes before drug administration. A 5, 15, or 30 minute period following drug administration is allowed before the bolus injection of calcium chloride, 200 mg/kg i.v. or potassium chloride, 62.5 mg/kg i.v. Control mice receive 4 ml/kg of 0.9% sodium chloride i.v. Mice are observed an additional 15 minutes for arrhythmias, fibrillation, survival or death. Any compound at a dose of less than 20 mg/kg i.v. that protects 3 out of 6 mice from cardiac death in either the potassium or calcium chloride test, is considered active.

[4] = system: Male mice of the Swiss Webster Strain; experiment: Potassium chloride-induced arrhythmia in anesthetized mice (survival); type: in vivo; conditions: Mus musculus, iv, Dose = 10 mg/kg i.v.; potassium chloride 62.5 mg/kg i.v. bolus 5, 15 or 30 minutes after drug; observed 15 minutes; read-out: KCl #Mice Surviving #Mice Tested (converted)
Source text: as §1, §2

Row | SMILES | inhibition at 100 µM [1] [%] | Avg. MABP in mm Hg (No. of Rats) [2] | responders at 10 mg/kg [3] [%] | responders at 10 mg/kg [4] [%]
1 | O=[N+]([O-])c1cccnc1NCCCn1ccnc1 [Example 2, N-[3-(1H-Imidazol-1-yl)propyl]-3-nitro-2-pyridinamine] | 80 | 98 (2) mm Hg | 50 | 66.7
2 | N#Cc1cccnc1NCCCn1ccnc1 [Example 4, 2-[[3-(1H-Imidazol-1-yl)propyl]amino]-3-pyridinecarbonitrile] | 93 | 117 (4) mm Hg | 66.7 | 16.7
3 | c1ccc2nc(NCCCn3ccnc3)ccc2c1 [Example 5, N-[3-(1H-Imidazol-1-yl)propyl]-2-quinolinamine] | 93 | 97 (2) mm Hg | 83.3 | 50
4 | c1ccc2c(c1)nc(NCCCn1ccnc1)c1ccccc12 [Example 8, N-[3-(1H-Imidazol-1-yl)propyl]-6-phenanthridinamine] | 100 | 103 (2) mm Hg | 33.3 | 100
5 | Cc1nc(NCCCn2ccnc2)ccc1C#N [Example 30, 6-[[3-(1H-Imidazol-1-yl)propyl]amino]-2-methyl-3-pyridinecarbonitrile] | 94 | 61 (2) mm Hg | 16.7 | 100
6 | Cc1cc(NCCCn2ccnc2)nc2c(C)cccc12 [Example 32, N-[3-(1H-Imidazol-1-yl)propyl]-4,8-dimethyl-2-quinolinamine] | 98 | 96 (2) mm Hg | 0 | 50
7 | CC(CNc1nc2ccccc2c2ccccc12)Cn1ccnc1 (centres unmarked) [Example 86, N-[3-(1H-Imidazol-1-yl)-2-methylpropyl]-6-phenanthridinamine] | 100 | 114 (2) mm Hg | 16.7 | 50
8 | Cc1cc(NCC(C)Cn2ccnc2)nc2ccccc12 (centres unmarked) [Example 88, N-[3-(1H-Imidazol-1-yl)-2-methylpropyl]-4-methyl-2-quinolinamine] | 98 | 96 (2) mm Hg | 16.7 | 83.3
9 | Cc1cc(NCCCc2cccnc2)nc2ccccc12.Cl.Cl [Example 98, 4-Methyl-N-[3-(3-pyridinyl)propyl]-2-quinolinamine, dihydrochloride] | – | 95 (2) mm Hg | 83.3 | 83.3
